The target in the test is T1, human active recombinant p38α-6His tagged (Homo sapiens, UniProt Q16539).
T1 construct: 6His
T1 sequence (Q16539 whole entry): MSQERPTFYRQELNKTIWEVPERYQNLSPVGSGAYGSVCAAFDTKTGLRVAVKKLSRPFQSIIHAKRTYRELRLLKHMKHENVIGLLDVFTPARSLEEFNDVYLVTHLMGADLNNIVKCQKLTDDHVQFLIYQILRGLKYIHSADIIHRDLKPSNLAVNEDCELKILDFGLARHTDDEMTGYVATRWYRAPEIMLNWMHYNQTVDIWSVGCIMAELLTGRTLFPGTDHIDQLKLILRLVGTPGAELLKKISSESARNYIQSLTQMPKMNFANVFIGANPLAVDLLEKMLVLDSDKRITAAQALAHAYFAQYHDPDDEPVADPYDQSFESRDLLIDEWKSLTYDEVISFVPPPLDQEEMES
As to the kind of experiment: p38 Alpha Enzyme Assay (AlphaScreen, biotinylated-ATF2 substrate). Type of test: biochemical. The conditions noted are these: pre-incubated 4 hours at 37° C., reaction initiated with ATP; 0.5 nM enzyme; read-out: p38 pIC50 (converted). The method, then:
The ability of the compounds of formula (I) to inhibit p38 kinase may be determined using the following biological assay:
Enzyme assays were performed in polypropylene 96 well plates. The following solutions were added to each well; 10 μL of compound dilutions in assay buffer (20 mM HEPES pH 7.4, containing 20 mM magnesium acetate, 0.005% (w/v) Tween-20, 10 mM DTT) containing 1% (v/v) DMSO or assay buffer containing 1% (v/v) DMSO alone, 70 μL of assay buffer containing 36 nM substrate (biotinylated-ATF2) and 10 μL of an appropriate dilution of human active recombinant p38α-6His tagged. Depending on batch of p38, an appropriate dilution was typically a 5 nM solution to give a final enzyme concentration of 0.5 nM. At this stage, background control wells also received 50 μL of AlphaScreen quench buffer (10 mM HEPES pH 7.4 containing 100 mM EDTA, 0.2% (w/v) bovine serum albumin). The plate was covered, pre-incubated for 4 hours at 37° C. and the enzyme reaction initiated by addition of 10 μL 1 mM ATP. After incubation for a further 45 minutes at 37° C., the reaction was stopped by addition of 50 μL quench reagent and 50 μL of the quenched reaction mixture transferred to an opaque, white 96-well plate. Detection reagent, 25 μL of 10 mM HEPES pH 7.4 containing 100 mM EDTA, 0.2% (w/v) bovine serum albumin, 0.3 nM anti phosphoATF2 antibody and 25 μg/mL of ‘AlphaScreen protein A acceptor and donor beads’ (PerkinElmer Inc.), was added to all wells in a darkened room, the plate sealed and left in the dark for at least 5 hours before AlphaScreen readings were taken using a Perkin Elmer EnVision reader. Total, uninhibited activity was determined from assays performed in each assay plate. The mean control in the absence of p38 activity was subtracted from each well. Data were expressed as percent inhibition of total activity using equation 1. Percent Inhibition=100*(1−Test/Control) Eq.1 Where . . . . • Test=p38 kinase activity in the presence of compound • Control=p38 kinase activity in the absence of compound.
pIC50 is defined as the logarithm of the reciprocal of the concentration of compound required for 50% reduction in total p38 kinase activity.
As for `Cc1ccc(C(=O)NC2CC2)cc1-c1ccc2c(=O)n(CC3CC3)cc(CNCCCN(C)C)c2c1` [Example 71, N-Cyclopropyl-3-(2-(cyclopropylmethyl)-4-((3-(dimethylamino)propylamino)methyl)-1-oxo-1,2-dihydroisoquinolin-6-yl)-4-methylbenzamide], the IC50 is 10 nM.

For `Cc1c(F)cc(C(=O)NC2CC2)cc1-c1ccc2c(=O)n(CC3CC3)cc(CN3CCCNCC3)c2c1` [Example 92, 3-(4-((1,4-Diazepan-1-yl)methyl)-2-(cyclopropylmethyl)-1-oxo-1,2-dihydroisoquinolin-6-yl)-N-cyclopropyl-5-fluoro-4-methylbenzamide], the IC50 was 0.1 nM.

On to `Cc1ccc(C(=O)NC2CC2)cc1-c1ccc2c(=O)n(Cc3ccc(C4=CCN(C(=O)OC(C)(C)C)CC4)cc3)ccc2c1` [Example 6, 4-{4-[6-(5-Cyclopropylcarbamoyl-2-methyl-phenyl)-1-oxo-1H-isoquinolin-2-ylmethyl]-phenyl}-3,6-dihydro-2H-pyridine-1-carboxylic acid, tert-butyl ester], for which the IC50 was 6.31 nM.

As to `Cc1c(F)cc(C(=O)NC2CC2)cc1-c1ccc2c(=O)n(CC3CC3)cc(CN3CCNC[C@@H]3C)c2c1` [Example 118, (S)—N-Cyclopropyl-3-(2-(cyclopropylmethyl)-4-((2-methylpiperazin-1-yl)methyl)-1-oxo-1,2-dihydroisoquinolin-6-yl)-5-fluoro-4-methylbenzamide], the IC50 is 0.251 nM.

As for `Cc1ccc(C(=O)NC2CC2)cc1-c1ccc2c(=O)n(Cc3ccc(C(=O)N(C)CCCN(C)C)cc3)ccc2c1` [Example 21, N-Cyclopropyl-3-(2-(4-((3-(dimethylamino)propyl)(methyl)carbamoyl)benzyl)-1-oxo-1,2-dihydroisoquinolin-6-yl)-4-methylbenzamide], the IC50 was 3.16 nM.

For the molecule `Cc1c(F)cc(C(=O)NC2CC2)cc1-c1ccc2c(=O)n(CC3CC3)cc(CN3CCCN(CCO)CC3)c2c1` [Example 78, N-Cyclopropyl-3-(2-(cyclopropylmethyl)-4-((4-(2-hydroxyethyl)-1,4-diazepan-1-yl)methyl)-1-oxo-1,2-dihydroisoquinolin-6-yl)-5-fluoro-4-methylbenzamide], the IC50 was 0.158 nM.

On to `Cc1ccc(C(=O)NC2CC2)cc1-c1ccc2c(=O)n(Cc3ccccc3)ccc2c1` [Example 1, 3-(2-Benzyl-1-oxo-1,2-dihydro-isoquinolin-6-yl)-N-cyclopropyl-4-methyl-benzamide], for which the IC50 was 0.794 nM.

On to `Cc1c(F)cc(C(=O)NC2CC2)cc1-c1ccc2c(=O)n(CC3CC3)cc(CNCC3CCNCC3)c2c1` [Example 89, N-Cyclopropyl-3-(2-(cyclopropylmethyl)-1-oxo-4-((piperidin-4-ylmethylamino)methyl)-1,2-dihydroisoquinolin-6-yl)-5-fluoro-4-methylbenzamide], for which the IC50 is 0.794 nM.

On to `Cc1c(F)cc(C(=O)NC2CC2)cc1-c1ccc2c(=O)n(CC3CC3)cc(CN3CCN(C)[C@@H](CO)C3)c2c1` [Example 87, (R)—N-Cyclopropyl-3-(2-(cyclopropylmethyl)-4-((3-(hydroxymethyl)-4-methylpiperazin-1-yl)methyl)-1-oxo-1,2-dihydroisoquinolin-6-yl)-5-fluoro-4-methylbenzamide], for which the IC50 is 0.0631 nM.

For the molecule `Cc1ccc(C(=O)NC2CC2)cc1-c1ccc2c(=O)n(Cc3ccccc3)cc(C(=O)NCCN3CCCCC3)c2c1` [Example 48, 2-Benzyl-6-(5-(cyclopropylcarbamoyl)-2-methylphenyl)-1-oxo-N-(2-(piperidin-1-yl)ethyl)-1,2-dihydroisoquinoline-4-carboxamide], the IC50 was 2.51 nM.

With `CNCCOc1ccc(Cn2ccc3cc(-c4cc(C(=O)NC5CC5)ccc4C)ccc3c2=O)cc1` [Example 36, N-Cyclopropyl-4-methyl-3-(2-(4-(2-(methylamino)ethoxy)benzyl)-1-oxo-1,2-dihydroisoquinolin-6-yl)benzamide], the IC50 is 0.398 nM.

As to `Cc1ccc(C(=O)NC2CC2)cc1-c1ccc2c(=O)n(Cc3ccc(C(=O)O)cc3)cc(CN3CCCN(C)CC3)c2c1` [Example 104, 4-((6-(5-(Cyclopropylcarbamoyl)-2-methylphenyl)-((4-methyl-1,4-diazepan-1-yl)methyl)-1-oxoisoquinolin-2(1H)-yl)methyl)benzoic acid], the IC50 is 0.2 nM.

Take `Cc1ccc(C(=O)NC2CC2)cc1-c1ccc2c(=O)n(Cc3ccccc3)cc(C(=O)NCCN3CCCC3)c2c1` [Example 49, 2-Benzyl-6-{5-[(cyclopropylamino)carbonyl]-2-methylphenyl}-1-oxo-N-(2-pyrrolidin-1-ylethyl)-1,2-dihydroisoquinoline-4-carboxamide]: the IC50 is 3.16 nM.

In the case of `Cc1c(F)cc(C(=O)NC2CC2)cc1-c1ccc2c(=O)n(CC3CC3)cc(CN3CCC(NC(C)C)CC3)c2c1` [Example 84, N-Cyclopropyl-3-(2-(cyclopropylmethyl)-4-((4-(isopropylamino)piperidin-1-yl)methyl)-1-oxo-1,2-dihydroisoquinolin-6-yl)-5-fluoro-4-methylbenzamide], the IC50 is 0.2 nM.

Take `Cc1ccc(C(=O)NC2CC2)cc1-c1ccc2c(=O)n(Cc3ccc(CN4CCCC4)cc3)ccc2c1` [Example 25, N-Cyclopropyl-4-methyl-3-(1-oxo-2-(4-(pyrrolidin-1-ylmethyl)benzyl)-1,2-dihydroisoquinolin-6-yl)benzamide]: the IC50 was 3.16 nM.

On to `Cc1ccc(C(=O)NC2CC2)cc1-c1ccc2c(=O)n(Cc3cccc(OCCCN(C)C)c3)cc(C)c2c1` [Example 93, N-Cyclopropyl-3-(2-(3-(3-(dimethylamino)propoxy)benzyl)-4-methyl-1-oxo-1,2-dihydroisoquinolin-6-yl)-4-methylbenzamide], for which the IC50 is 2 nM.

As to `Cc1c(F)cc(C(=O)NC2CC2)cc1-c1ccc2c(=O)n(CC3CC3)cc(CN3CCNC[C@H]3CO)c2c1` [Example 108, (S)—N-Cyclopropyl-3-(2-(cyclopropylmethyl)-4-((2-(hydroxymethyl)piperazin-1-yl)methyl)-1-oxo-1,2-dihydroisoquinolin-6-yl)-5-fluoro-4-methylbenzamide], the IC50 was 0.0631 nM.

On to `Cc1ccc(C(=O)NC2CC2)cc1-c1ccc2c(=O)n(Cc3ccc(C4CCNCC4)cc3)c(C)cc2c1` [Example 98, N-Cyclopropyl-4-methyl-3-(3-methyl-1-oxo-2-(4-(piperidin-4-yl)benzyl)-1,2-dihydroisoquinolin-6-yl)benzamide], for which the IC50 is 2.51 nM.

Turning to `Cc1ccc(C(=O)NC2CC2)cc1-c1ccc2c(=O)n(CC3CC3)cc(C(=O)NCCCN3CCCC3)c2c1` [Example 44, 6-(5-(Cyclopropylcarbamoyl)-2-methylphenyl)-2-(cyclopropylmethyl)-1-oxo-N-(3-(pyrrolidin-1-yl)propyl)-1,2-dihydroisoquinoline-4-carboxamide], the IC50 is 25.1 nM.

In the case of `CCNC(=O)c1ccc(C)c(-c2ccc3c(=O)n(Cc4ccccc4)ccc3c2)c1` [Example 2, 3-(2-Benzyl-1-oxo-1,2-dihydro-isoquinolin-6-yl)-N-ethyl-4-methyl-benzamide], the IC50 is 7.94 nM.

Turning to `Cc1ccc(C(=O)NC2CC2)cc1-c1ccc2c(=O)n(Cc3ccc(CN(C)C)cc3)ccc2c1` [Example 14, N-Cyclopropyl-3-[2-(4-dimethylaminomethyl-benzyl)-1-oxo-1,2-dihydro-isoquinolin-6-yl]-4-methyl-benzamide], the IC50 is 2.51 nM.

For `Cc1ccc(C(=O)NC2CC2)cc1-c1ccc2c(=O)n(CC3CC3)cc(CN3CCCN(C)CC3)c2c1` [Example 59, N-Cyclopropyl-3-[2-cyclopropylmethyl-4-(4-methyl-[1,4]diazepan-1-ylmethyl)-1-oxo-1,2-dihydro-isoquinolin-6-yl]-4-methyl-benzamide], the IC50 is 0.316 nM.

Take `Cc1ccc(C(=O)NC2CC2)cc1-c1ccc2c(=O)n(CC3CC3)cc(C(=O)N3CCC(N)CC3)c2c1` [Example 42, 3-(4-(4-Aminopiperidine-1-carbonyl)-2-(cyclopropylmethyl)-1-oxo-1,2-dihydroisoquinolin-6-yl)-N-cyclopropyl-4-methylbenzamide]: the IC50 is 1.26 nM.

Consider `Cc1ccc(C(=O)NC2CC2)cc1-c1ccc2c(=O)n(Cc3ccccc3)cc(CCCN3CCCC3)c2c1` [Example 100, 3-(2-Benzyl-1-oxo-4-(3-(pyrrolidin-1-yl)propyl)-1,2-dihydroisoquinolin-6-yl)-N-cyclopropyl-4-methylbenzamide], for which the IC50 is 1 nM.

On to `Cc1ccc(C(=O)NC2CC2)cc1-c1ccc2c(=O)n(C(C)c3ccccc3)ccc2c1` (stereo not shown) [Example 121, N-Cyclopropyl-4-methyl-3-(1-oxo-2-(1-phenylethyl)-1,2-dihydroisoquinolin-6-yl)benzamide], for which the IC50 is 3.98 nM.
